From patent US7629361B2, “Salt of (S)-pantoprazole and its hydrates” (NYCOMED GmbH, priority 2002, dated 2009) come the findings set out here.

Series [1] has as its system human liver microsomes. In words: Metabolization on human liver microsomes. It is filed as in vitro ADME. The note with it: 10 μM, 1 mg/ml protein, 120 min, n=3. The procedure:
(§1) I) Human liver microsomes: Pantoprazole racemate and the (+)- and (−)-enantiomers (10 μM each) were incubated with human liver microsomes (source: TEBU, incubation in 1 mg/ml protein, 100 mM Tris-HCl, pH 7.4, 1 mM NADPH2). Reaction was terminated after 30 and 120 minutes by liquid nitrogen, the parent compound was detected by HPLC (10 mM KH2PO4, pH 7.4, acetonitril gradient 20-48%).

The target of series [2] is T1, Recombinant CYP 2C19 (Homo sapiens, UniProt P33261).
T1 construct: purchased GENTEST
Kind of series: Metabolization on recombinant CYP 2C19. The format is in vitro ADME. The note with it: 10 μM, 0.1 mg/ml protein, 120 min, n=3. How it is done:
as §1
II) Recombinant CYP 2C19 (source: GENTEST); incubation method as described under I) (in presence of 0.1 mg/ml protein).

Series [3] can be described thus: Hygroscopicity / water content of the salts. The format is physicochemical. Conditions: depending on drying conditions and atmospheric humidity. The procedure:
Drying was carried out in a vacuum drying cabinet at <50 mbar and 40-45° C. [It is also possible to dispense with drying and to use the moist product (having an MIBK content of 10-20%) directly for step B].

A short description of series [4]: Storage stability of the solid salts at elevated temperature.
For series [5], the system named is pentagastrin-stimulated acid output in the Ghosh-Schild rat. Kind of series: Inhibition of acid output in the Ghosh-Schild rat after i.v. administration. It is filed as in vivo. Conditions: 1 μmol/kg i.v. 3 hours prior to pentagastrin stimulation; 3 to 7.5 hours after administration; FIG. 3; listed as (−)-enantiomer, Dihydrate. The procedure:
Female Sprague Dawley CD rats (190-210 g body weight) were anaesthetised with 1.5 g/kg i.m. of urethane, in 5 ml/kg physiologic saline. The trachea was intubated and both, the left external jugular vein (for drug administration) and left femoral vein (for pentagastrin infusion) were cannulated. An esophagus/cardia-cannula (diameter: 1.7 mm) was inserted transorally, and a pylorus-cannula (diameter: 2.6 mm) was inserted through the duodenum, and both were secured with a ligature. The pyloric catheter was led through the right abdominal wall. Body temperature was maintained at 37.0±0.2° C. by means of infrared radiation and electric cushion (automatic infinite control via rectal temperature probe). After thorough flushing (about 50-100 ml), the stomach was continuously perfused with 0.5 ml/min of physiologic saline (37° C.). In the effluate, collected at 15 min intervals, the pH as well as the acid output were determined, the latter by titration to pH 7 with freshly prepared 0.01 N NaOH.
Gastric secretion was stimulated by a continuous intravenous infusion (left femoral vein) of 1 μg/kg×min pentagastrin (in 1.6 ml/h physiologic saline) starting after determination of two basal values of acid secretion, i.e., 30 min after commencement of stomach perfusion. See horizontal bars in FIGS. 1 and 2 for pentagastrin-infusion. […]

The nature of series [6]: Wettability, dissolution rate and solubility compared to racemic pantoprazole magnesium dihydrate.

“Also recorded” adds a separate entry of the source.

T1 sequence (P33261 whole entry): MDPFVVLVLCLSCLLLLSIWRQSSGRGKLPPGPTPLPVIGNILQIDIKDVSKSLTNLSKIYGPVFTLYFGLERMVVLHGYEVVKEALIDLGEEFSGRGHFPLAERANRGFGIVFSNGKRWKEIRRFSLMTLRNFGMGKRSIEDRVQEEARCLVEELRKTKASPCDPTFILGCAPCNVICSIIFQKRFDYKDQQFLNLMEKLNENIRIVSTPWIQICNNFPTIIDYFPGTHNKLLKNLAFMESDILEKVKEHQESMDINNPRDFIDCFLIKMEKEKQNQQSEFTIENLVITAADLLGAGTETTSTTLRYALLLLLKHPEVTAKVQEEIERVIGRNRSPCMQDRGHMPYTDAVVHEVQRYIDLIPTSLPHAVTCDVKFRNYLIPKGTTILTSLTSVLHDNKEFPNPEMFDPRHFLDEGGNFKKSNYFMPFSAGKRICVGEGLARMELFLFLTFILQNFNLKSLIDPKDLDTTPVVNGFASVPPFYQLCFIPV

With `COc1ccnc(C[S+]([O-])c2nc3ccc(OC(F)F)cc3[nH]2)c1OC` (racemic) [racemate, 5-difluoromethoxy-2-[(3,4-dimethoxy-2-pyridinyl)methylsulphinyl]-1H-benzimidazole], in series [1], the “metabolized on human microsomes (mean)” value came to 44%. In series [2], the “metabolized on CYP2C19 (mean)” value amounted to 67%.

For `COc1ccnc(C[S+]([O-])c2nc3ccc(OC(F)F)cc3[nH]2)c1OC` (single isomer, unassigned; (+)) [(+) enantiomer], the “metabolized on human microsomes (mean)” value in series [1] was found to be 44%. In addition, the “metabolized on CYP2C19 (mean)” value in series [2] came out at 64%.

For the compound `COc1ccnc(C[S+]([O-])c2nc3cc(OC(F)F)ccc3[nH]2)c1OC` (single isomer, unassigned; (-)) [(−)-Pantoprazole, (−)-[5-(difluoromethoxy)]-2-[(3,4-dimethoxy-2-pyridinyl)methylsulphinyl]-1H-benzimidazole], the “metabolized on human microsomes (mean)” value in series [1] turned out to be 26%. Moreover, the “metabolized on CYP2C19 (mean)” value in series [2] stood at 54%.

Take `COc1ccnc(C[S+]([O-])c2nc3cc(OC(F)F)ccc3[n-]2)c1OC.COc1ccnc(C[S+]([O-])c2nc3cc(OC(F)F)ccc3[n-]2)c1OC.[Ca+2]` (single isomer, unassigned; (-)) [(−)-pantoprazole calcium]: the water content in series [3] is given as 4-8%.

For the compound `COc1ccnc(C[S+]([O-])c2nc3cc(OC(F)F)ccc3[n-]2)c1OC.[Na+]` (single isomer, unassigned; (-)) [(−)-pantoprazole sodium], the “hygroscopicity (absorption of water)” value is on record as “absorbs water” in series [3] and “hygroscopic” in series [3] (listed as (−)-Pantoprazole-Na). In addition, the “purity (according to HPLC) after storage” value in series [4] (storage at 60-70° C., atmospheric conditions, starting purity 99.5%) is 96-97%.

For the compound “Magnesium (−)-bis{[5-(difluoromethoxy)]-2-[(3,4-dimethoxy-2-pyridinyl)methylsulphinyl]-1H-benzimidazolide} Dihydrate [(−)-pantoprazole magnesium dihydrate]”, in series [3], the “hygroscopicity (absorption of water)” value is reported as “non-hygroscopic” and the water content entry is “about 4.4%”. The “inhibition of acid secretion, Experiment 2, compared to the (+)-enantiomer” value in series [5] is on record as “significantly superior; also recorded: significantly more effective”. Further, in series [4] (70° C., one week), the “stability (discolouration, decomposition) on storage” value is “completely stable”. Also, the “sum of by-products on storage” value in series [4] (storage under atmospheric conditions, 60-70° C.) is “remains virtually constant”. In addition, the “wettability compared to racemic pantoprazole magnesium dihydrate” value in series [6] was “better wettability”. Moreover, the “dissolution rate compared to racemic pantoprazole magnesium dihydrate” value in series [6] (pH 7-7.4) is given as “considerably higher dissolution rate”. The “solubility relative to racemic pantoprazole magnesium dihydrate” value in series [6] (pH 10) is reported as “about tenfold”.
